Measurements reported in patent US11491117B2, “Compounds for the prevention and treatment of glucose intolerance related conditions and obesity” (SORBONNE UNIVERSITÉ, priority 2017, dated 2022).

Key:
[1] = system: adipose tissue gene expression; experiment: Quantitative RT-PCR in retroperitoneal fat pads of chronically treated mice; type: in vivo, mouse
Description: Transcript abundance of key genes regulating adipose tissue biology was tested by quantitative RT-PCR in retroperitoneal fat pads of mice fed control chow diet (CHD) or high fat diet (HFD). Data were analyzed using the unpaired Mann-Whitney test. […] RNA was extracted from pancreas, adipose tissue and liver using the RNeasy RNA Mini Kit (Qiagen, Courtaboeuf, France). Reverse transcription was performed from a 20 μL reaction mixture with 500 ng RNA using M-MLV reverse transcriptase kit (ThermoFisher, Villebon, France). Quantitative RT-PCR was performed using sequence specific primers and the MESA green kit for SYBR green assays (Eurogentec, Angers, France). We used 18S and/or cyclophilin house keeping genes to normalize relative quantification of mRNA levels using the Livak and […] methods ([…], 2001).

[2] = system: C57BL/6J mice fed CHD or HFD; experiment: Histology and immunohistochemistry of liver and pancreas of chronically treated mice; type: in vivo, mouse; details: for islet size (immunohistochemistry) / insulin positive area: mean±SEM
Description: Tissues were drop-fixed in 4% paraformaldehyde (Sigma-Aldrich, Saint Quentin Fallavier, France) immediately after collection and put through an automated carousel processor for dehydration, clearing, and paraffin embedding (Leica, Nanterre, France). Sections were prepared for liver (6 μm), pancreas (6 μm) and adipose tissue ([…]) and mounted on slides (DPX polymerizing mountant, Sigma-Aldrich, Saint Quentin Fallavier, France). Hematoxylin and Eosin (H&E) was used to evaluate tissue morphology. Epitope-specific antibodies were used for immunohistochemistry detection of insulin on pancreas sections (Dako, Saint Aubin, France).
For Oil redO (ORO), livers were snap frozen in OCT (VWR, Fontenay-sous-Bois, France) and cut into 7-μm sections using a cryostat. Sections were rehydrated in PBS (Sigma-Aldrich, St Quentin, France) and incubated with an ORO staining solution (Sigma Aldrich, St Quentin, France). Slides were washed in deionized water and mounted with Vectashield mounting medium (Laboratoires Eurobio Abcys, LesUlis, France).
For immunohistochemistry analysis, pancreas sections were quenched with 3% H2O2, washed with TBS+0.1% (v/v) Tween-20 (or 0.05% v/v Triton X-100 for nuclear epitopes), blocked with TBS+3% (w/v) BSA and incubated with diluted primary antibodies and then with HRP-conjugated secondary antibody (Bio-Rad, Marnes-la-Coquette, France). Chromogenic detection was carried out with the DAB chromogen kit (Dako, Saint Aubin, France). Nuclei were counterstained with hematoxylin. Quantitative expression of all immunostainings was performed using positive pixels algorithm (Indica Labs, Corrales, N. Mex.). For double immunostaining and immunofluorescence analyses, pancreas sections were stained for insulin as described above and co-stained with i) primary Anti-Ki67 antibody (ab15580, Abcam, Paris, France) and secondary Donkey Anti-Goat IgG H&L conjugated to Alexa Fluor® 568 (ab175704, Abcam, Paris, France) ii) primary Mouse/Rat CD31/PECAM-1 Antibody (AF3628, Minneapolis, USA) and secondary Goat anti-Rabbit IgG H&L conjugated to Alexa Fluor 488 (A-11034, ThermoFisher, Villebon, France). Results are expressed as percentage of positive pixels, within islets where indicated. The quantification method is an automated observer-independent process based on section scanning and application of publicly available algorithms. Each biological replicate represents one slide per animal mounted with at least 3 tissue sections, representing 3 technical replicates, the mean and variance of which is presented as the result per biological replicate. All images were acquired on an Axiovert 200M microscope (Zeiss, Marly-le-Roi, France).

Compound: Cc1ccc(O)cc1 [4-cresol]
- Ucp1 expression in adipose tissue ([1]; CHD fed mice): markedly downregulated
- expression of Sirt1, Cav2, Hsl and Pnpla2 (Atg1) in adipose tissue ([1]; CHD fed mice): significantly stimulated
- Ucp1 expression in adipose tissue ([1]; HFD-fed mice, vs HFD saline and CHD 4-cresol): significantly downregulated
- expression of Hsl and Pnpla2 in adipose tissue ([1]; HFD-fed mice, vs saline treated fat fed mice): significantly upregulated
- islet size (immunohistochemistry) ([2]; CHD fed mice): 153.60±14.18
- number of proliferative nuclei (KI67) in pancreas ([2]; CHD-fed mice): significantly increased
- reduction in liver fat content (Oil-Red-O staining) ([2]; HFD fed mice, P=0.009, to the level of saline-treated CHD-fed controls): 40.7%
- islet size (immunohistochemistry) ([2]; HFD fed mice): 170.00±12.56
- number of proliferative nuclei (KI67) in pancreas ([2]; HFD-fed mice): remained elevated
- CD31 positive cells (pancreas vascularization) ([2]; both groups fed CHD or HFD): further significant increase
- liver fat content (Oil-Red-O staining) ([2]; mice fed CHD): reduced
- islet density ([2]; mice fed CHD or HFD, significant only in CHD-fed mice): strong increase
- insulin positive area ([2]; mice fed CHD, statistically significant): 185.40±22.95
- insulin positive area ([2]; mice fed HFD, not statistically significant): 171.90±21.62
